# Patent publication US20140296146A1, “Thermostable Inhibitors of Activation of the Blood Clotting System Through Contact with Foreign Surfaces” (Synapse B.V., priority 2011, published 2014)
# Like-named read-outs stand apart in the source and are kept apart here. Where a SMILES comes first, the peptide text is derived from it. Bridges are numbered along the chain shown (N, C = ends).
# Columns and labels:
# h-FXIIa [1] = biological target: T1, h-FXIIa (Homo sapiens, UniProt P00748); assay: Effect of inhibitors on hydrolysis of S2302 by h-FXIIa; assay type: biochemical
# T1 construct: purchased Enzyme Research Laboratories FXIIa 1212A
# T1 sequence (P00748 373-615 limits assumed): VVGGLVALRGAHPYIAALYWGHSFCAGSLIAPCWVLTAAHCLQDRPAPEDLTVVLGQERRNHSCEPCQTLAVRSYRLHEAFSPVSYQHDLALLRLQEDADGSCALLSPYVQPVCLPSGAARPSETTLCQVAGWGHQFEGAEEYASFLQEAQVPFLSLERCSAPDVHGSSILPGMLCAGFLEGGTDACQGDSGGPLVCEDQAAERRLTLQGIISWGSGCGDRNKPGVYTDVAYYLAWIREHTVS
# T1 sequence (P00748 20-372 partner limits assumed): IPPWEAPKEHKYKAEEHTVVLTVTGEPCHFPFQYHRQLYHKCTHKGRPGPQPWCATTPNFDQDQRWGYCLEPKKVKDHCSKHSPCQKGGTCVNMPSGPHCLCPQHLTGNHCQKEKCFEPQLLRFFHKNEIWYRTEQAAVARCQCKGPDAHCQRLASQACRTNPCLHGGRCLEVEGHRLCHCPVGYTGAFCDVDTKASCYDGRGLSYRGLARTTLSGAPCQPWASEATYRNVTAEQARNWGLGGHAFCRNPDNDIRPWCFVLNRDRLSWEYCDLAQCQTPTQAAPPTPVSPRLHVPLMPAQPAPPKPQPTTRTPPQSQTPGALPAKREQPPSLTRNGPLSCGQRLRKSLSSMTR
# Method: (§1) Materials • S2302 From Chromogenic, lot # N0398718 SEQ0860, exp. date 2012-07. Water added on 7 Oct. […] On 3 Aug. […] Product code FXIIa 1212A, lot #FXIIa 2520PL. Bottle with 0.5 mg was reconstituted with 370 μl pure water. […] Buffer 4 mM NaAc, 150 mM NaCl (pH 5.3). Preparation was divided into 20 μl amounts and frozen at −80° C. • Hepes735 140 mM NaCl, 20 mM Hepes, 0.02% NaN3 (pH 7.35). • BSA5 Hepes735+5 mg/ml BSA. • CTI Prepared on 17 Dec. 2004, 0.141 mg/ml, i.e. 0.141/12028=11.7*10^−6 M (11.7 μM). One portion was thawed and divided into 3 parts. Part 1 was frozen at −80° C.; part 2 was kept at RT; and part 3 was incubated 30 min at 95° C. and then kept at RT.
# (§2) Stock FXIIa was diluted 700× in BSA5. The inhibitor was diluted in BSA5 as indicated. Wells contained 70 μl diluted FXIIa (5 nM final), 70 μl inhibitor and 20 μl S2302 (475 or 462.5 μM final). The reaction was started after 5 min heating on the heating plate with S2302. Filters 405 nm and 490 nm reference. Found mΔA/min was multiplied by 2.14 to get the figure for a 1 cm path.
# The residual activity (V) was fitted against the PTI concentration with equation:
# (§3) V=(E+(sqrt(Ê2+2*E*(Ki−I)+Î2+2*I*Ki+Kî2)−E−I−Ki)/2)*kcat*S/(Km+S)
# (§4) in which E=[FXIIa], Ki is the dissociation constant, I=[Inhibitor], kcat and Km are Michaelis constants and S=[S2302].
# h-FXIIa [2] = biological target: T1, h-FXIIa; assay: Stability of CTI, PTI and TICA at RT and at 95° C., read as inhibition of h-FXIIa; assay type: physicochemical
# Method: as §1, with “Part 1 was frozen at −80° C.; part 2 was kept at RT; and part 3 was incubated 30 min at 95° C. and then kept at RT.” left out
# as §2, with “ΔmA/min” for “mΔA/min”
# The residual activity (V) was fitted against the inhibitor concentration with equation:
# as §3, §4
# To calculate the concentration of I the equation I=x·(x−E−Ki)/(x−E) was used. In this equation is I the calculated inhibitor concentration, x=the residual activity of FXIIa (free FXIIa), E the total FXIIa concentration (=9.33 nM), and Ki the dissociation or inhibitor constant.
# [3] = Ki, Table 2, inhibitory activity of different polypeptides
# [4] = ki F.XIIa (ng/ml), Before heating
Compound,Ki (h-FXIIa [1]),Ki (h-FXIIa [1]; [3]),Ki (h-FXIIa [1]; [4]),Res. Act. (%) (h-FXIIa [2]; inhibitor 30 min 95° C.),Res. Act. (%) (h-FXIIa [2]; inhibitor at RT during 72 hrs),Res. Act. (%) (h-FXIIa [2]; inhibitor kept at −80° C.)
"CC[C@H](C)[C@@H]1NC(=O)[C@H](CCCNC(=N)N)NC(=O)[C@@H]2CCCN2C(=O)[C@@H](NC(=O)[C@@H](NC(=O)[C@H](CCCNC(=N)N)NC(=O)[C@H](C)NC(=O)[C@H](C)NC(=O)[C@H](C)N)C(C)C)CSSC[C@@H]2NC(=O)[C@H](CCC(=O)O)NC(=O)[C@H](C)NC(=O)[C@H](CC(C)C)NC(=O)[C@@H]3CSSC[C@@H](C(=O)NCC(=O)O)NC(=O)[C@H](Cc4ccc(O)cc4)NC(=O)CNC(=O)[C@H](Cc4c[nH]cn4)NC(=O)[C@H](CCC(=O)O)NC(=O)[C@H](CC(C)C)NC(=O)[C@H](CSSC[C@H](NC(=O)[C@H](CCCCN)NC(=O)[C@H](CCSC)NC(=O)[C@H](CC(C)C)NC1=O)C(=O)N[C@@H](CCCCN)C(=O)N[C@@H](CCCCN)C(=O)N[C@@H](CC(=O)O)C(=O)N[C@@H](CO)C(=O)N[C@@H](CC(=O)O)C(=O)N3)NC(=O)[C@H](C(C)C)NC2=O [AAA-TICA1] (H-AAARVCPRILMKCKKDSDCLAECVCLEHGYCG-OH; disulfide 6-23, 13-25, 19-31)",104 nM,–,–,–,–,–
"CC[C@H](C)[C@@H]1NC(=O)[C@H](CCCNC(=N)N)NC(=O)[C@@H]2CCCN2C(=O)[C@@H](NC(=O)[C@@H](NC(=O)[C@@H](N)CCCNC(=N)N)C(C)C)CSSC[C@@H]2NC(=O)[C@H](CCC(=O)O)NC(=O)[C@H](C)NC(=O)[C@H](CC(C)C)NC(=O)[C@@H]3CSSC[C@@H](C(=O)NCC(=O)N[C@@H](C)C(=O)N[C@@H](C)C(=O)N[C@@H](C)C(=O)O)NC(=O)[C@H](Cc4ccc(O)cc4)NC(=O)CNC(=O)[C@H](Cc4c[nH]cn4)NC(=O)[C@H](CCC(=O)O)NC(=O)[C@H](CC(C)C)NC(=O)[C@H](CSSC[C@H](NC(=O)[C@H](CCCCN)NC(=O)[C@H](CCSC)NC(=O)[C@H](CC(C)C)NC1=O)C(=O)N[C@@H](CCCCN)C(=O)N[C@@H](CCCCN)C(=O)N[C@@H](CC(=O)O)C(=O)N[C@@H](CO)C(=O)N[C@@H](CC(=O)O)C(=O)N3)NC(=O)[C@H](C(C)C)NC2=O [TICA1-AAA] (H-RVCPRILMKCKKDSDCLAECVCLEHGYCGAAA-OH; disulfide 3-20, 10-22, 16-28)",377 nM,–,–,–,–,–
"CC[C@H](C)[C@@H]1NC(=O)[C@H](CCCNC(=N)N)NC(=O)[C@@H]2CCCN2C(=O)[C@@H](NC(=O)[C@@H](NC(=O)[C@H](CCCNC(=N)N)NC(=O)[C@H](CCC(=O)O)NC(=O)[C@H](CCC(=O)O)NC(=O)[C@@H](N)Cc2c[nH]cn2)C(C)C)CSSC[C@@H]2NC(=O)[C@H](CCC(=O)O)NC(=O)[C@H](C)NC(=O)[C@H](CC(C)C)NC(=O)[C@@H]3CSSC[C@@H](C(=O)NCC(=O)O)NC(=O)[C@H](Cc4ccc(O)cc4)NC(=O)CNC(=O)[C@H](Cc4c[nH]cn4)NC(=O)[C@H](CCC(=O)O)NC(=O)[C@H](CC(C)C)NC(=O)[C@H](CSSC[C@H](NC(=O)[C@H](CCCCN)NC(=O)[C@H](CCSC)NC(=O)[C@H](CC(C)C)NC1=O)C(=O)N[C@@H](CCCCN)C(=O)N[C@@H](CCCCN)C(=O)N[C@@H](CC(=O)O)C(=O)N[C@@H](CO)C(=O)N[C@@H](CC(=O)O)C(=O)N3)NC(=O)[C@H](C(C)C)NC2=O [TICA3] (H-HEERVCPRILMKCKKDSDCLAECVCLEHGYCG-OH; disulfide 6-23, 13-25, 19-31 (inferred); N-terminus and C-terminus assumed)",–,3090 nM,2760 nM,103%,101%,100%
"CC[C@H](C)[C@@H]1NC(=O)[C@@H]2CSSC[C@H](NC(=O)[C@@H](NC(=O)[C@H](CCCNC(=N)N)NC(=O)[C@H](CCC(=O)O)NC(=O)[C@H](CCC(=O)O)NC(=O)[C@@H](N)Cc3c[nH]cn3)C(C)C)C(=O)N3CCC[C@H]3C(=O)N[C@@H](CCCCN)C(=O)N[C@@H]([C@@H](C)CC)C(=O)N[C@@H](CC(C)C)C(=O)N[C@@H](CCSC)C(=O)N[C@@H](CCC(=O)O)C(=O)N[C@H]3CSSC[C@H](NC1=O)C(=O)N[C@@H](CC(C)C)C(=O)N[C@@H](CCC(=O)O)C(=O)N[C@@H](Cc1c[nH]cn1)C(=O)NCC(=O)N[C@@H](Cc1ccc(O)cc1)C(=O)N[C@H](C(=O)NCC(=O)O)CSSC[C@H](NC(=O)[C@H](CC(=O)O)NC(=O)[C@H](CO)NC(=O)[C@H](CC(=O)O)NC(=O)[C@H](CCCCN)NC(=O)[C@H](CCCCN)NC3=O)C(=O)N[C@@H](CC(C)C)C(=O)N[C@@H](C)C(=O)N[C@@H](CCC(=O)O)C(=O)N2 [TICA5] (H-HEERVCPKILMECKKDSDCLAECICLEHGYCG-OH; disulfide 6-23, 13-25, 19-31 (inferred); N-terminus and C-terminus assumed)",–,171000 nM,152000 nM,105%,96%,100%
